The subject of series [1] is A549 human lung cancer cells. The series is described as follows: Cell proliferation-inhibiting activity, A549 (CellTiter-Glo). The class given is cell-based. Particulars: A549, 96 h. In general terms: ATP-based viability assays read luminescence as a measure of living cells.
Description: The test compound was serially diluted with DMSO and then diluted 25-fold with Ca^2+, Mg^2+-free phosphate-buffered saline, and was then dispensed into a 96-well plate at 5 μL per well. A cell suspension containing the below indicated concentration of A549, Calu-6 or NCI-H2122 human lung cancer cells (all obtained from ATCC) was prepared using the below indicated medium with the addition of 10% fetal bovine serum (Sigma). The cell suspension was dispensed into the test compound-added plate at 95 μL per well and cultured in a 5% carbon dioxide gas incubator at 37° C. After 4 days, 80 μL of CellTiter-Glo (registered trademark) (Promega Corp.) was added to each well and the bioluminescence was measured with a fluorescent plate reader.
Series [2] in a line: Human liver microsome stability. The class given is in vitro ADME. The note with it: pH 7.4; human liver microsomes, NADPH, 37° C. How it is done: The compounds listed in Table 2 below were tested for metabolic stability in human liver microsomes as described below using a Biomek3000 (Beckman Coulter). There were dispensed 400 ILL of 1 mg/mL human liver microsomes (XENOTECH)/0.1 M potassium phosphate buffer (pH 7.4) into each well of a 96-well plate. A DMSO solution (4 μL) of 200 μM test compound was then added, and incubation was conducted until reaching 37° C. To this reaction mixture (200 IL) there was added a solution (200 μL) containing 2 mM NADPH (ORIENTAL YEAST)/0.1 M potassium phosphate buffer (pH 7.4) that had been incubated at 37° C. At 0 min, 5 min, 15 min or 30 min after addition, the reaction mixture (50 μL) was added to acetonitrile (100 μL) to stop the metabolic reaction. After the metabolic reaction was stopped, a 1 μM warfarin aqueous solution (50 μL) was added to each reaction mixture as an internal standard. […] The percent remaining relative to the amount of test compound at 0 min was calculated from the obtained peak area ratio of the test compound to internal standard. The elimination rate constant (ke) was calculated from the incubation time and percent remaining using the primary elimination rate equation, and the hepatic intrinsic clearance (CLint) was calculated using the formula shown below. […]
In general terms: Microsomes from liver hold many membrane-bound enzymes, among them those of drug oxidation.

Series [3] concerns the target T1, BRAF (Homo sapiens, UniProt P15056).
T1 construct: purchased Eurofins Genomics KK
The series is described as follows: BRAF-inhibiting activity (time-resolved fluorescence-fluorescence resonance energy transfer assay). Format: biochemical. The note with it: MEK1, ATP-containing buffer. The method, then:
The BRAF-inhibiting activity of the compounds listed in Table 2 below was evaluated by the time-resolved fluorescence-fluorescence resonance energy transfer assay as described below.

T1 sequence (P15056 whole entry): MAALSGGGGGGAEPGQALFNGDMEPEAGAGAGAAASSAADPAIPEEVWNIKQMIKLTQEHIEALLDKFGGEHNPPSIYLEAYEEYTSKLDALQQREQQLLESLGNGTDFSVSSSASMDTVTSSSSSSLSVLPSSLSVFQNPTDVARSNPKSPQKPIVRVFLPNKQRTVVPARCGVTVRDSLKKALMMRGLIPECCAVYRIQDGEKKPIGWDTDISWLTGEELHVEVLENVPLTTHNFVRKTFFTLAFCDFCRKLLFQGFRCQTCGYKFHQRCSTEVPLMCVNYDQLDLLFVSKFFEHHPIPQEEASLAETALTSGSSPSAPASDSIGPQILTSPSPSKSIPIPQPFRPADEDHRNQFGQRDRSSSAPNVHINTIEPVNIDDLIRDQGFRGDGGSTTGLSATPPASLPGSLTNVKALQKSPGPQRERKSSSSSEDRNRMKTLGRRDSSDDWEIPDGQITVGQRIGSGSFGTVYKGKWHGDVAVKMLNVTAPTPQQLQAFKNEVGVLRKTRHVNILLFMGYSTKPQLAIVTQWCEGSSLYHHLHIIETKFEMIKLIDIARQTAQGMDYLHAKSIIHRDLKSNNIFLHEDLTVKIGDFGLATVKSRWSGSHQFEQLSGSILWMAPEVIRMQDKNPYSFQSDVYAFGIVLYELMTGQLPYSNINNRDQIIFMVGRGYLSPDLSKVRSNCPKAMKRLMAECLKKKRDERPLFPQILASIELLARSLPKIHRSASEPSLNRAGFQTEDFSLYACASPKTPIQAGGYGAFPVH
T1 sequence (Q02750 whole entry partner): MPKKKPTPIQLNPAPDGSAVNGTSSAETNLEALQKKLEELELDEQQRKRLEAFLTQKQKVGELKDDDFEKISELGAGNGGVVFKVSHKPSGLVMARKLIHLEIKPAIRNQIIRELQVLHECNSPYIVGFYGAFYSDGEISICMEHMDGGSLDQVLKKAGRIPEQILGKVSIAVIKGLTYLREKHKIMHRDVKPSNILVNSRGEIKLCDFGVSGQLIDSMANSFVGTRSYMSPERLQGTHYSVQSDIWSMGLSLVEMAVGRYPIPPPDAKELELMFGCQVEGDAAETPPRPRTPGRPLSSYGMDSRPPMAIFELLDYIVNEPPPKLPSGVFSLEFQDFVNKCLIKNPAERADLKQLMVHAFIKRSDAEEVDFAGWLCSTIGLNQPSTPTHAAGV

With `NC(=O)c1cc(Cc2ccnc(NS(=O)(=O)NCC3COC3)c2F)c(F)c(F)c1Nc1ccc(I)cc1F` [Sample A-21, 3,4-difluoro-2-(2-fluoro-4-iodoanilino)-5-[[3-fluoro-2-(oxetan-3-ylmethylsulfamoylamino)pyridin-4-yl]methyl]benzamide], the IC50 in series [1] came out at 3 nM. `NC(=O)c1cc(Cc2ccnc(NS(=O)(=O)NC3C4COCC43)c2F)c(F)c(F)c1Nc1ccc(I)cc1F` (centres unmarked) [Sample A-22, 3,4-Difluoro-2-(2-fluoro-4-iodoanilino)-5-[[3-fluoro-2-(3-oxabicyclo[3.1.0]hexan-6-ylsulfamoylamino)pyridin-4-yl]methyl]benzamide] displayed a microsomal CLint at 0.99 µM in series [2] of 47 µL/min/mg. Molecule `NC(=O)c1cc(Cc2ccnc(NS(=O)(=O)NC3CCOCC3)c2F)c(F)c(F)c1Nc1ccc(I)cc1F` [Sample A-29, 3,4-Difluoro-2-(2-fluoro-4-iodoanilino)-5-[[3-fluoro-2-(oxan-4-ylsulfamoylamino)pyridin-4-yl]methyl]benzamide] yielded an IC50 in series [3] of 1 nM. The molecule `CC1(NS(=O)(=O)Nc2nccc(Cc3cc(C(N)=O)c(Nc4ccc(I)cc4F)c(F)c3F)c2F)CCC1` [Sample A-35, 3,4-difluoro-2-(2-fluoro-4-iodoanilino)-5-[[3-fluoro-2-[(1-methylcyclobutyl)sulfamoylamino]pyridin-4-yl]methyl]benzamide] displayed an IC50 in series [1] of 2 nM.

As for `CCNS(=O)(=O)Nc1nccc(Cc2cc(C(=O)NOCCO)c(Nc3ccc(I)cc3F)c(F)c2F)c1F` [Sample A-44, 5-[[2-(Ethylsulfamoylamino)-3-fluoropyridin-4-yl]methyl]-3,4-difluoro-2-(2-fluoro-4-iodoanilino)-N-(2-hydroxyethoxy)benzamide], the IC50 in series [3] amounted to 9 nM.

As usually defined, the IC50 is the concentration that gives 50% inhibition. Read a low IC50 as greater potency. As a reminder, the microsomal CLint is the capacity of the preparation to metabolise the compound, expressed as a volume cleared per time.

The record behind these values is patent US20230270730A1, “COMPOSITION CONTAINING ARYLAMIDE DERIVATIVE” (Chugai Seiyaku Kabushiki Kaisha, priority 2020, published 2023).
